According to ChEMBL document CHEMBL3991601, “The target landscape of clinical kinase drugs” (Science, 2017):
The source made the active and inactive calls. For most assays here, no stated cut-off is given here; in the data, actives have a measured Kd and inactives only a lower limit.

Experiments:
[1] = target: Atypical kinase COQ8A, mitochondrial (Homo sapiens, UniProt Q8NI60)
[2] = target: T1, ATP-dependent RNA helicase DDX1 (Homo sapiens, UniProt Q92499)
T1 sequence (Q92499 whole entry): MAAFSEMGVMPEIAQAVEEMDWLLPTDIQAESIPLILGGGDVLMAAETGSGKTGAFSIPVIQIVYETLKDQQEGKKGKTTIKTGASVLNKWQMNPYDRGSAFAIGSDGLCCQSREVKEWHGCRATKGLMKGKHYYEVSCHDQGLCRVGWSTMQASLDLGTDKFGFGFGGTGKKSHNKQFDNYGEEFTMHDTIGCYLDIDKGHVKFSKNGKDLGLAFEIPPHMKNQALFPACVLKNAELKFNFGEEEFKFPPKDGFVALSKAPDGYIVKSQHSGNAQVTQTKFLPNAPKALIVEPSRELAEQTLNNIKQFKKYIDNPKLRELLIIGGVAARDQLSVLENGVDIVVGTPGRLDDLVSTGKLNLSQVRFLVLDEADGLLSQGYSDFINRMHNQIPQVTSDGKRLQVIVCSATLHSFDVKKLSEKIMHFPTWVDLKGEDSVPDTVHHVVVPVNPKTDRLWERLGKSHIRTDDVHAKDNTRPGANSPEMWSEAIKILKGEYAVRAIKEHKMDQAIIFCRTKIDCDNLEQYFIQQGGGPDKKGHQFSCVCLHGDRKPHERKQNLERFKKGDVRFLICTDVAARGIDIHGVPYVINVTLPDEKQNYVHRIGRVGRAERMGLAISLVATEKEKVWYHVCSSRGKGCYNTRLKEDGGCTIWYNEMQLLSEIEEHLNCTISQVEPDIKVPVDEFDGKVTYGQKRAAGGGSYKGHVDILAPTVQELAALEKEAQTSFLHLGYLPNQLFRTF

[3] = target: Guanine nucleotide-binding protein G(i) subunit alpha-2 (Homo sapiens, UniProt P04899)
[4] = target: MAP/microtubule affinity-regulating kinase 3 (Homo sapiens, UniProt P27448)
[5] = target: T2, Phosphatidylinositol 5-phosphate 4-kinase type-2 gamma (Homo sapiens, UniProt Q8TBX8)
T2 sequence (Q8TBX8 whole entry): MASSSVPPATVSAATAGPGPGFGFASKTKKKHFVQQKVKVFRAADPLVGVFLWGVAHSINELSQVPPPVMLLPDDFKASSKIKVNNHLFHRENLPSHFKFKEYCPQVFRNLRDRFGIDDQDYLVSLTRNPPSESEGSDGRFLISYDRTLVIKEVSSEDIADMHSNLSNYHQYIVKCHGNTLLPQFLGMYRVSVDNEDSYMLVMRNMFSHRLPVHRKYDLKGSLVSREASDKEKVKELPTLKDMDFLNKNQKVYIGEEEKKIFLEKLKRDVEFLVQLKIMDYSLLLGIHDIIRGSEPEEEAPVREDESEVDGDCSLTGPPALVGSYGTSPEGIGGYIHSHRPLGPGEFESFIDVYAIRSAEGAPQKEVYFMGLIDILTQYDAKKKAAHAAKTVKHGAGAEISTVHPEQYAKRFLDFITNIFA

[6] = target: Serine/threonine-protein kinase 26 (Homo sapiens, UniProt Q9P289)
[7] = target: T3, Tyrosine-protein kinase Tec (Homo sapiens, UniProt P42680)
T3 sequence (P42680 whole entry): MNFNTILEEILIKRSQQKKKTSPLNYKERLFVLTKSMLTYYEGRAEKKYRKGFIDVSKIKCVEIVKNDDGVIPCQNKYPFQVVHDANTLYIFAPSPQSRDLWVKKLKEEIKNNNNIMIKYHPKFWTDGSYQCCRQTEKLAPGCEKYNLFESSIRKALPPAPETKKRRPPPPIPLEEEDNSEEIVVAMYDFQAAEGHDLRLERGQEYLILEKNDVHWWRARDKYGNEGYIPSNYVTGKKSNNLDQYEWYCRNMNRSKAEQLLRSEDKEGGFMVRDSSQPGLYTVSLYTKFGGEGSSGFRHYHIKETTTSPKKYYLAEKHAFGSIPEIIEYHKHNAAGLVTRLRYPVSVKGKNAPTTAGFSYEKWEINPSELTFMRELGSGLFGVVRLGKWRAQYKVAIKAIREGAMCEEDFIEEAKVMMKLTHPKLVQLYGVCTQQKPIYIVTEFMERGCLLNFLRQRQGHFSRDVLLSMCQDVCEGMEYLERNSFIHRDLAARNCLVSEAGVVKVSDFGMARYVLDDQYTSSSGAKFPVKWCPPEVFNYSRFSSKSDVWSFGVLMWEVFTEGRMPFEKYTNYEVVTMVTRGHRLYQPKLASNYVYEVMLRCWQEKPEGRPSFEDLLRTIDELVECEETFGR

[8] = target: T4, Non-receptor tyrosine-protein kinase TNK1 (Homo sapiens, UniProt Q13470)
T4 sequence (Q13470 whole entry): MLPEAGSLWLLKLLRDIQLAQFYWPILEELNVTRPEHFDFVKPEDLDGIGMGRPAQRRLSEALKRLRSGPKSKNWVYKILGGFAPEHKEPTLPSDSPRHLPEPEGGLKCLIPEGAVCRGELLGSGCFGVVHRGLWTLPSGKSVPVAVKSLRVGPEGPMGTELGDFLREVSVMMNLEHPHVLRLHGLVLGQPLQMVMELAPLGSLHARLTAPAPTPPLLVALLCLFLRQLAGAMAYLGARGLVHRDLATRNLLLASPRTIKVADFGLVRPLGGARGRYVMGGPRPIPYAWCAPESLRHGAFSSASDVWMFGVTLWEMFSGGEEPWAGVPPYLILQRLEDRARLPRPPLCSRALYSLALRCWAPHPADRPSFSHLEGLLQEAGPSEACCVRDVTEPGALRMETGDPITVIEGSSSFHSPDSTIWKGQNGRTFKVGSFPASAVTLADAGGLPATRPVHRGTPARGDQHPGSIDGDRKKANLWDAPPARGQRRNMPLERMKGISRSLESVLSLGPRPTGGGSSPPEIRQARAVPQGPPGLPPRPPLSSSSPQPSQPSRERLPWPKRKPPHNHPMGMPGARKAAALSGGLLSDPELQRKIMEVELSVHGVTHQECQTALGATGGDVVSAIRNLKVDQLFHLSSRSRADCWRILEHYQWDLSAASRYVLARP

Sequence of Guanine nucleotide-binding protein G(i) subunit alpha-2 (P04899 whole entry): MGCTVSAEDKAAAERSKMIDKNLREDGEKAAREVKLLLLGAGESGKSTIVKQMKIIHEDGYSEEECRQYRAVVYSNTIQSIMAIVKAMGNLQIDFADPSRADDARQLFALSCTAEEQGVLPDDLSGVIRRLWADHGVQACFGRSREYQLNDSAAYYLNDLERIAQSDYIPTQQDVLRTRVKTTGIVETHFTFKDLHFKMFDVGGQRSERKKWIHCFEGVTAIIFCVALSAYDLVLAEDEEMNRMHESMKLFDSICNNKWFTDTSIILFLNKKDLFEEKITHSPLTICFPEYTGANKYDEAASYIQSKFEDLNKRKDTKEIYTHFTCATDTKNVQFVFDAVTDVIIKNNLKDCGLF
Sequence of MAP/microtubule affinity-regulating kinase 3 (P27448 whole entry): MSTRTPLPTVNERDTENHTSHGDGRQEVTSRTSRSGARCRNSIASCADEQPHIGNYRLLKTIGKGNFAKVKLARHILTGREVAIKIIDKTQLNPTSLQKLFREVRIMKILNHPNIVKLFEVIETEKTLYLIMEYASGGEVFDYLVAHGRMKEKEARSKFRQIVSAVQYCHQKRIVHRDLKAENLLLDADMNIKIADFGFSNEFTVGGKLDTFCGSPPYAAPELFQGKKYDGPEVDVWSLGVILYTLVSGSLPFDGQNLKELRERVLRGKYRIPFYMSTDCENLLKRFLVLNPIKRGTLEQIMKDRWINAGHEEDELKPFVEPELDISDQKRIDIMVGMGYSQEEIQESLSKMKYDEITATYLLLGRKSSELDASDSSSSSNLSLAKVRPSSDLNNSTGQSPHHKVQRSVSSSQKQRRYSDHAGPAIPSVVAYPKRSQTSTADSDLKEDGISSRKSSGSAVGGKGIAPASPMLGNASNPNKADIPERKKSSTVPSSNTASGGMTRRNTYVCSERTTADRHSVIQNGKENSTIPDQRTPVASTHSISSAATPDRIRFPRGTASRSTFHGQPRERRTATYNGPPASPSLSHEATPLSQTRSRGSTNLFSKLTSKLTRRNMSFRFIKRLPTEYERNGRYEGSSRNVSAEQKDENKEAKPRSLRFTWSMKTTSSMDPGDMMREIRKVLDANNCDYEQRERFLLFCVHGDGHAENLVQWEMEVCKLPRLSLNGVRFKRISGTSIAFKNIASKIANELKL
Sequence of Serine/threonine-protein kinase 26 (Q9P289 whole entry): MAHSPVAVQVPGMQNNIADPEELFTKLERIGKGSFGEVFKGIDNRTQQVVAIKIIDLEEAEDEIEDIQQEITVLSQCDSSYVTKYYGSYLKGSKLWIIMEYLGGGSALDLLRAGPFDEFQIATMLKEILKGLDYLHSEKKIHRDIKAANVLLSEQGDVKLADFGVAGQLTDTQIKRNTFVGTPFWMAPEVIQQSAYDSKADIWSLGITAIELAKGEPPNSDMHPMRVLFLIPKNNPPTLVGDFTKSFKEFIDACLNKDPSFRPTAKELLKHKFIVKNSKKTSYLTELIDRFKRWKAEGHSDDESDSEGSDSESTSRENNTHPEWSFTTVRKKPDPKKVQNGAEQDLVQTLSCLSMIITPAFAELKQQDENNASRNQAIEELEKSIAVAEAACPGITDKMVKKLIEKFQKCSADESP
Sequence of Atypical kinase COQ8A, mitochondrial (Q8NI60 whole entry): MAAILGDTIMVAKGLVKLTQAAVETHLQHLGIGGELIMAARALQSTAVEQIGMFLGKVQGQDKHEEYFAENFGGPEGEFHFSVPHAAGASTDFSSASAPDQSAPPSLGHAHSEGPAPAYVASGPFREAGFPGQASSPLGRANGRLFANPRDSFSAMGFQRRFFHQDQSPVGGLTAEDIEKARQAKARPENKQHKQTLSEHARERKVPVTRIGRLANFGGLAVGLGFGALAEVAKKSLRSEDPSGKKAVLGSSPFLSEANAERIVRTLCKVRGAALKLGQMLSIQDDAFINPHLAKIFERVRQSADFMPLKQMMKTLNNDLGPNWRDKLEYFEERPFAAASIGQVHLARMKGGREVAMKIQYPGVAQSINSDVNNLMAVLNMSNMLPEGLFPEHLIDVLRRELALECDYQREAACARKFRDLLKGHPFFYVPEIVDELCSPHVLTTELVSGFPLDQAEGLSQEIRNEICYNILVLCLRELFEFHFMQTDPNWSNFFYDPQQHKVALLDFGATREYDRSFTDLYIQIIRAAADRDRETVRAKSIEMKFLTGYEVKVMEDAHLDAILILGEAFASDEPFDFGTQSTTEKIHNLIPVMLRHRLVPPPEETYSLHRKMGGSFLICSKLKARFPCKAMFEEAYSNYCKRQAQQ

| SMILES | Kd [1] | Kd [2] | Kd [3] | Kd [4] | Kd [5] | Kd [6] | Kd [7] | Kd [8] |
| --- | --- | --- | --- | --- | --- | --- | --- | --- |
| CC1(COc2ccc3c(c2)ncn3-c2ccc3cccc(N4CCC(N)CC4)c3n2)COC1 [CRENOLANIB] | > 30 µM (inactive) | > 30 µM (inactive) | > 30 µM (inactive) | 0.22 µM (active) | > 30 µM (inactive) | 0.013 µM (active) | > 30 µM (inactive) | > 30 µM (inactive) |
| O=S(=O)(c1cccc2cnccc12)N1CCCNCC1 [FASUDIL] | > 30 µM (inactive) | > 30 µM (inactive) | > 30 µM (inactive) | > 30 µM (inactive) | > 30 µM (inactive) | > 30 µM (inactive) | > 30 µM (inactive) | > 30 µM (inactive) |
| COc1cc(F)c(F)c(Nc2ccc(I)cc2F)c1NS(=O)(=O)C1(C[C@H](O)CO)CC1 [REFAMETINIB] | > 30 µM (inactive) | > 30 µM (inactive) | > 30 µM (inactive) | > 30 µM (inactive) | > 30 µM (inactive) | > 30 µM (inactive) | > 30 µM (inactive) | > 30 µM (inactive) |
| COc1cccc2cc(-c3nc([C@H]4CC[C@H](C(=O)O)CC4)n4ncnc(N)c34)[nH]c12 [OSI-027] | > 30 µM (inactive) | > 30 µM (inactive) | > 30 µM (inactive) | > 30 µM (inactive) | 4.97 µM | > 30 µM (inactive) | > 30 µM (inactive) | > 30 µM (inactive) |
| CC(C)(O)CC(=O)NCCn1ccc2ncnc(Nc3ccc(Oc4cccc(C(F)(F)F)c4)c(Cl)c3)c21 [TAK-285] | > 30 µM (inactive) | > 30 µM (inactive) | > 30 µM (inactive) | > 30 µM (inactive) | > 30 µM (inactive) | > 30 µM (inactive) | > 30 µM (inactive) | > 30 µM (inactive) |
| CNC(=O)c1cccc(-c2ccc3c(N4CCOC[C@@H]4C)nc(N4CCOC[C@@H]4C)nc3n2)c1 [VISTUSERTIB] | > 30 µM (inactive) | > 30 µM (inactive) | > 30 µM (inactive) | > 30 µM (inactive) | > 30 µM (inactive) | > 30 µM (inactive) | > 30 µM (inactive) | > 30 µM (inactive) |
| c1cc(OCCN2CCCCC2)cc(-c2n[nH]c3ccc(-c4nc[nH]n4)cc23)c1 [CC-401] | > 30 µM (inactive) | > 30 µM (inactive) | > 30 µM (inactive) | > 30 µM (inactive) | > 30 µM (inactive) | > 30 µM (inactive) | > 30 µM (inactive) | > 30 µM (inactive) |
| C=CC(=O)Nc1cc(Nc2nccc(-c3cn(C)c4ccccc34)n2)c(OC)cc1N(C)CCN(C)C [OSIMERTINIB] | > 30 µM (inactive) | > 30 µM (inactive) | > 30 µM (inactive) | > 30 µM (inactive) | 2.97 µM (active) | > 30 µM (inactive) | 0.321 µM (active) | > 30 µM (inactive) |
| COc1ccc2c(OCc3nnc4ccc(-c5ccccc5)nn34)ccnc2c1 [AMG-208] | > 30 µM (inactive) | > 30 µM (inactive) | > 30 µM (inactive) | > 30 µM (inactive) | > 30 µM (inactive) | > 30 µM (inactive) | > 30 µM (inactive) | > 30 µM (inactive) |
| CC(C)CC(=O)Nc1[nH]nc2c1CN(C(=O)C1CCN(C)CC1)C2(C)C [PHA-793887] | > 30 µM (inactive) | > 30 µM (inactive) | > 30 µM (inactive) | > 30 µM (inactive) | > 30 µM (inactive) | 0.175 µM | > 30 µM (inactive) | > 30 µM (inactive) |
| C=CCn1c(=O)c2cnc(Nc3ccc(N4CCN(C)CC4)cc3)nc2n1-c1cccc(C(C)(C)O)n1 [ADAVOSERTIB] | > 30 µM (inactive) | > 30 µM (inactive) | > 30 µM (inactive) | > 30 µM (inactive) | > 30 µM (inactive) | > 30 µM (inactive) | > 30 µM (inactive) | > 30 µM (inactive) |
| Cn1cc(-c2[nH]c3cc(NC(=O)[C@H](N)C4CCCCC4)cc4c3c2C=NNC4=O)cn1 | > 30 µM (inactive) | > 30 µM (inactive) | > 30 µM (inactive) | 0.387 µM (active) | > 30 µM (inactive) | > 30 µM (inactive) | > 30 µM (inactive) | > 30 µM (inactive) |
| NC(=O)c1ccc(N(C(N)=O)c2c(F)cccc2F)nc1-c1ccc(F)cc1F [VX-702] | > 30 µM (inactive) | > 30 µM (inactive) | > 30 µM (inactive) | > 30 µM (inactive) | > 30 µM (inactive) | > 30 µM (inactive) | > 30 µM (inactive) | > 30 µM (inactive) |
| COCCN1CCN(Cc2ccc(-c3n[nH]c4c3C(=O)c3c(NC(=O)NN5CCOCC5)cccc3-4)cc2)CC1 [RGB-286638] | > 30 µM (inactive) | > 30 µM (inactive) | > 30 µM (inactive) | > 30 µM (inactive) | 2.18 µM | 1.05 µM (active) | > 30 µM (inactive) | > 30 µM (inactive) |
| CCN1CCN(Cc2ccc(Nc3ncc(F)c(-c4cc(F)c5nc(C)n(C(C)C)c5c4)n3)nc2)CC1 [ABEMACICLIB] | > 30 µM (inactive) | > 30 µM (inactive) | > 30 µM (inactive) | > 30 µM (inactive) | > 30 µM (inactive) | > 30 µM (inactive) | > 30 µM (inactive) | > 30 µM (inactive) |
| COc1cccc(Nc2ncnn3ccc(CN4CC[C@@H](N)[C@H](O)C4)c23)c1 [BMS-690514] | > 30 µM (inactive) | > 30 µM (inactive) | > 30 µM (inactive) | 1.7 µM (active) | > 30 µM (inactive) | > 30 µM (inactive) | > 30 µM (inactive) | > 30 µM (inactive) |
| C=CC(=O)Nc1cccc(Nc2nc(Nc3ccc(N4CCN(C(C)=O)CC4)cc3OC)ncc2C(F)(F)F)c1 [ROCILETINIB] | > 30 µM (inactive) | > 30 µM (inactive) | > 30 µM (inactive) | > 30 µM (inactive) | > 30 µM (inactive) | > 30 µM (inactive) | 0.288 µM (active) | 0.289 µM (active) |
